Row | SMILES | melting point
1 | CC(C)c1ccc2c(c1)NC(=O)CC(c1ccnc(C#N)c1)=N2 [Example 105, 4-(7-Isopropyl-4-oxo-4,5-dihydro-3H-benzo [b][1,4]diazepin-2-yl)-pyridine-2-carbonitrile] | 173 to 178 °C
2 | O=C1CC(c2cccc(-n3cncn3)c2)=Nc2ccc(-c3ccc(F)cc3)cc2N1 [Example 64, 8-(4-Fluoro-phenyl)-4-(3-[1,2,4]triazol-1-yl-phenyl)-1,3-dihydro-benzo [b][1,4]diazepin-2-one] | 241 to 245 °C
3 | CC(=O)N1CC=C(c2ccc3c(c2)NC(=O)CC(c2cccc(C#N)c2)=N3)CC1 [Example 47, 3-[7-(1-Acetyl-1,2,3,6-tetrahydro-pyridin-4-yl)-4-oxo-4,5-dihydro-3H-benzo [b][1,4]diazepin-2-yl]-benzonitrile] | 220 to 222 °C (dec.)
4 | O=C1CC(c2cccc(-c3noc(CCCO)n3)c2)=Nc2ccc(-c3ccc(F)cc3)cc2N1 [Example 168, 8-(4-Fluoro-phenyl)-4-{3-[5-(3-hydroxy-propyl)-[1,2,4]oxadiazol-3-yl]-phenyl}-1,3-dihydro-benzo[b][1,4]diazepin-2-one] | 220 to 222 °C
5 | N#Cc1cccc(C2=Nc3ccc(-c4ccoc4)cc3NC(=O)C2)c1 [Example 14, 3-(7-Furan-3-yl-4-oxo-4,5-dihydro-3H-benzo[b][1,4]diazepin-2-yl)-benzonitrile] | 228 to 233 °C (dec.)
6 | N#Cc1cccc(C2=Nc3ccc(-c4ccsc4)cc3NC(=O)C2)c1 [Example 7, 3-(4-Oxo-7-thiophen-3-yl-4,5-dihydro-3H-benzo[b][1,4]diazepin-2-yl)-benzonitrile] | 238 to 243 °C (dec.)
7 | O=C1CC(c2cccc([N+](=O)[O-])c2)=Nc2ccc(-c3ccc(F)cc3)cc2N1 [Example 67, 8-(4-Fluoro-phenyl)-4-(3-nitro-phenyl)-1,3-dihydro-benzo [b][1,4]diazepin-2-one] | 220 to 226 °C (dec.)
8 | O=C1CC(c2cccc(-c3nc(CO)cs3)c2)=Nc2ccc(-c3ccc(F)cc3)cc2N1 [Example 156, 8-(4-Fluoro-phenyl)-4-[3-(4-hydroxymethyl-thiazol-2-yl)-phenyl]-1,3-dihydro-benzo[b][1,4]diazepin-2-one] | 235 to 239 °C (dec.)
9 | N#Cc1cccc(C2=Nc3ccc(C#Cc4nccs4)cc3NC(=O)C2)c1 [Example 21, 3-(4-Oxo-7-thiazol-2-ylethynyl-4,5-dihydro-3H-benzo[b][1,4]diazepin-2-yl)-benzonitrile] | 230 °C (dec.)
10 | Cc1noc(-c2cccc(C3=Nc4ccc(-c5ccc(F)cc5)cc4NC(=O)C3)c2)n1 [Example 169, 8-(4-Fluoro-phenyl)-4-[3-(3-methyl-[1,2,4]oxadiazol-5-yl)-phenyl]-1,3-dihydro-benzo[b][1,4]diazepin-2-one] | 266 to 268 °C
11 | Cc1cn(-c2cccc(C3=Nc4ccc(C#Cc5ccccc5)cc4NC(=O)C3)c2)c(C)n1 [Example 90, 4-[3-(2,4-Dimethyl-imidazol-1-yl)-phenyl]-8-phenylethynyl-1,3-dihydro-benzo[b][1,4]diazepin-2-one] | 134 °C (dec.)
12 | Cc1cn(-c2cccc(C3=Nc4ccc(C#Cc5ccc(F)cc5)cc4NC(=O)C3)c2)cn1 [Example 78, 8-(4-Fluoro-phenylethynyl)-4-[3-(4-methyl-imidazol-1-yl)-phenyl]-1,3-dihydro-benzo [b][1,4]diazepin-2-one] | 210 °C
13 | N#Cc1cccc(C2=Nc3ccc(-c4cccnc4)cc3NC(=O)C2)c1 [Example 40, 3-(4-Oxo-7-pyridin-3-yl-4,5-dihydro-3H-benzo [b][1,4]diazepin-2-yl)-benzonitrile] | 210 to 214 °C (dec.)
14 | Cc1cccc(-c2ccc3c(c2)NC(=O)CC(c2cccc(C#N)c2)=N3)c1 [Example 30, 3-(4-Oxo-7-m-tolyl-4,5-dihydro-3H-benzo [b][1,4]diazepin-2-yl)-benzonitrile] | 248 to 251 °C (dec.)
15 | CS(=O)(=O)Nc1cccc(C2=Nc3ccc(-c4ccc(F)cc4)cc3NC(=O)C2)c1 [Example 73, N-{3-[7-(4-Fluoro-phenyl)-4-oxo-4,5-dihydro-3H-benzo [b][1,4]diazepin-2-yl]-phenyl}-methanesulfonamide] | 232 to 235 °C
16 | N#Cc1ccsc1C1=CC(=O)Nc2cc(-c3ccccc3F)ccc2N1 [Example 84, 2-[7-(2-Fluoro-phenyl)-4-oxo-4,5-dihydro-1H-benzo [b][1,4]diazepin-2-yl]-thiophene-3-carbonitrile] | 238 to 240 °C
17 | N#Cc1ccc(-c2ccc3c(c2)NC(=O)CC(c2cccc(-n4ccnc4)c2)=N3)cc1 [Example 66, 4-[2-(3-Imidazol-1-yl-phenyl)-4-oxo-4,5-dihydro-3H-benzo [b][1,4]diazepin-7-yl]-benzonitrile] | 209 to 213 °C (dec.)
18 | COCSc1nccn1-c1cccc(C2=Nc3ccc(-c4ccccc4F)cc3NC(=O)C2)c1 [Example 102, 8-(2-Fluoro-phenyl)-4-[3-(2-methoxymethylsulfanyl-imidazol-1-yl)-phenyl]-1,3-dihydro-benzo[b][1,4]diazepin-2-one] | 189 to 190 °C

Row | SMILES | melting point
19 | N#Cc1cccc(C2=Nc3ccc(-c4ccc(OC(F)(F)F)cc4)cc3NC(=O)C2)c1 [Example 43, 3-[4-Oxo-7-(4-trifluoromethoxy-phenyl)-4,5-dihydro-3H-benzo [b][1,4]diazepin-2-yl]-benzonitrile] | 237 to 241 °C (dec.)
20 | O=C1CC(c2cccc([N+](=O)[O-])c2)=Nc2ccc(C#Cc3ccccc3)cc2N1 [Example 56, 4-(3-Nitro-phenyl)-8-phenylethynyl-1,3-dihydro-benzo [b][1,4]diazepin-2-one] | 228 to 229 °C
21 | O=C1CC(c2ccnc(-n3ccnc3)c2)=Nc2ccc(-c3ccc(F)cc3)cc2N1 [Example 69, 8-(4-Fluoro-phenyl)-4-(2-imidazol-1-yl-pyridin-4-yl)-1,3-dihydro-benzo [b][1,4]diazepin-2-one] | 213 °C (dec.)
22 | Cc1ccccc1-c1ccc2c(c1)NC(=O)CC(c1sccc1Cl)=N2 [Example 34, 4-(3-Chloro-thiophen-2-yl)-8-o-tolyl-1,3-dihydro-benzo [b][1,4]diazepin-2-one] | 247 to 248 °C (dec.)
23 | NC(=S)c1cccc(C2=Nc3ccc(-c4ccccc4F)cc3NC(=O)C2)c1 [Example 150, 3-[7-(2-Fluoro-phenyl)-4-oxo-4,5-dihydro-3H-benzo[b][1,4]diazepin-2-yl]-thiobenzamide] | 232 to 234 °C (dec.)
24 | O=C1CC(c2cccc(-c3nc(C(=O)NCCO)cs3)c2)=Nc2ccc(-c3ccc(F)cc3)cc2N1 [Example 161, 2-{3-[7-(4-Fluoro-phenyl)-4-oxo-4,5-dihydro-3H-benzo [b][1,4]diazepin-2-yl]-phenyl}-thiazole-4-carboxylic Acid (2-hydroxy-ethyl)-amide] | 238 to 245 °C (dec.)
25 | N#Cc1cccc(C2=Nc3ccc(C#Cc4ccccc4F)cc3NC(=O)C2)c1 [Example 131, 3-[7-(2-Fluoro-phenylethynyl)-4-oxo-4,5-dihydro-3H-benzo[b][1,4]diazepin-2-yl]-benzonitrile] | 213 to 214 °C
26 | O=C1CC(c2cccc(Cl)c2)=Nc2ccc(-c3ccccc3)cc2N1 [Example 19, 4-(3-Chloro-phenyl)-8-phenyl-1,3-dihydro-benzo[b][1,4]diazepin-2-one] | 208 °C (dec.)
27 | CCOC(=O)c1csc(-c2cccc(C3=Nc4ccc(-c5ccc(F)cc5)cc4NC(=O)C3)c2)n1 [Example 153, 2-{3-[7-(4-Fluoro-phenyl)-4-oxo-4,5-dihydro-3H-benzo [b][1,4]diazepin-2-yl]-phenyl}-thiazole-4-carboxylic Acid Ethyl Ester] | 236 to 238 °C (dec.)
28 | Cc1cc(-c2cccc(C3=Nc4ccc(-c5ccccc5F)cc4NC(=O)C3)c2)on1 [Example 127, 8-(2-Fluoro-phenyl)-4-[3-(3-methyl-isoxazol-5-yl)-phenyl]-1,3-dihydro-benzo-[b][1,4]diazepin-2-one] | 222 to 224 °C
29 | Cc1nc(-c2cccc(C3=Nc4ccc(-c5ccc(F)cc5)cc4NC(=O)C3)c2)sc1C(=O)NCCO [Example 162, 2-{3-[7-(4-Fluoro-phenyl)-4-oxo-4,5-dihydro-3H-benzo [b][1,4]diazepin-2-yl]-phenyl}-4-methyl-thiazole-5-carboxylic Acid (2-hydroxy-ethyl)-amide] | 248 to 251 °C (dec.)
30 | NC(=O)c1cccc(C2=Nc3ccc(C#Cc4ccccc4)cc3NC(=O)C2)c1 [Example 148, 3-(4-Oxo-7-phenylethynyl-4,5-dihydro-3H-benzo [b][1,4]diazepin-2-yl)-benzamide] | > 250 °C (dec.)
31 | CS(=O)(=O)N1CC=C(c2ccc3c(c2)NC(=O)CC(c2cccc(C#N)c2)=N3)CC1 [Example 46, 3-[7-(1-Methanesulfonyl-1,2,3,6-tetrahydro-pyridin-4-yl)-4-oxo-4,5-dihydro-3H-benzo [b][1,4]diazepin-2-yl]-benzonitrile] | 211 to 213 °C (dec.)
32 | O=C1CC(c2sccc2Cl)=Nc2ccc(-c3ccccc3)cc2N1 [Example 38, 4-(3-Chloro-thiophen-2-yl)-8-phenyl-1,3-dihydro-benzo [b][1,4]diazepin-2-one] | 228 °C (dec.)
33 | O=C1CC(c2cccc(Cl)c2)=Nc2ccc(C(=O)c3ccccc3)cc2N1 [Example 35, 8-Benzoyl-4-(3-chloro-phenyl)-1,3-dihydro-benzo [b][1,4]diazepin-2-one] | 199 to 202 °C (dec.)
34 | O=C1CC(c2cccc(-n3cnnn3)c2)=Nc2ccc(-c3ccccc3F)cc2N1 [Example 88, 8-(2-Fluoro-phenyl)-4-(3-tetrazol-1-yl-phenyl)-1,3-dihydro-benzo [b][1,4]diazepin-2-one] | 179 to 180 °C
35 | N#Cc1cccc(C2=Nc3ccc(C#Cc4cccs4)cc3NC(=O)C2)c1 [Example 50, 3-(4-Oxo-7-thiophen-2-ylethynyl-4,5-dihydro-3H-benzo [b][1,4]diazepin-2-yl)-benzonitrile] | 235 to 238 °C (dec.)
36 | N#Cc1cccc(C2=Nc3ccc(C#CC4=CCNCC4)cc3NC(=O)C2)c1 [Example 140, 3-[4-Oxo-7-(1,2,3,6-tetrahydro-pyridin-4-ylethynyl)-4,5-dihydro-3H-benzo [b][1,4]diazepin-2-yl]-benzonitrile] | 184 °C

From patent US6509328B1, “Glutamate receptor antagonists” (Hoffmann-La Roche Inc., priority 1999, dated 2003)
